Results published in paper PMC3644221 (Toxicology letters, 2013).

Target: CYP1A1 (Homo sapiens, UniProt P04798)
Assay: inhibition of CYP1A1-specific Luciferin-CEE activity
Type: biochemical

Sequence of CYP1A1 (P04798 whole entry): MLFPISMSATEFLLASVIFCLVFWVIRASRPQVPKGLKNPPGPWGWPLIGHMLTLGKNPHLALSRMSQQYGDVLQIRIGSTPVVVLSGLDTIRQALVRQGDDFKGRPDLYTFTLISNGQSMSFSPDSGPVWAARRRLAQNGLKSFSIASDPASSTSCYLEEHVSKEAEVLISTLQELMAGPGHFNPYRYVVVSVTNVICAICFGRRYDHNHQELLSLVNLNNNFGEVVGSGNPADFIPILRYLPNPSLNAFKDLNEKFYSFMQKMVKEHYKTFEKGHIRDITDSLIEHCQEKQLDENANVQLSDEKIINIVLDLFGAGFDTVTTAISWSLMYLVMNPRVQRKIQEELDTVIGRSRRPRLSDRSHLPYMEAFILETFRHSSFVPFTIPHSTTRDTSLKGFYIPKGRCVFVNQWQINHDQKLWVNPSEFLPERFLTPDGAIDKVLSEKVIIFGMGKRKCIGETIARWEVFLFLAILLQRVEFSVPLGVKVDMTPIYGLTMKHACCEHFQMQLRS

SMILES	IC50 [µM]
Oc1cc(O)c2cc(O)c(-c3cc(O)c(O)c(O)c3)[o+]c2c1 [delphinidin]	77
Oc1ccc(-c2[o+]c3cc(O)cc(O)c3cc2O)cc1 [pelargonidin]	33
